Structures can show the parent of a compound that is named as a salt.

For the assay, the target named is T1, PDE7 (type VII phosphodiesterase) (Homo sapiens, UniProt Q13946).
T1 construct: endogenous in cells; host or cells: MOLT-4 (ATCC CRL-1582), soluble fraction, HiTrapQ anion-exchange fraction
The experiment in a line: PDE7 inhibiting activity (3H-cAMP hydrolysis, active fraction from MOLT-4 cells). To be noted: PDE7 fraction from MOLT-4 cells, 0.064 μM cAMP, 10 μM rolipram present, 2 hours at 25° C.; read-out: IC50 values for phosphodiesterase inhibiting activities (PDE7). Type of assay: biochemical. The essentials:
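PDE7 from MOLT-4 cell soluble fraction, HiTrapQ NaCl-gradient purified. Compounds reacted 2 h at 25° C in 20 mM tris-HCl pH 7.5, 1 mM MgCl2, 0.1 μCi 3H-cAMP (0.064 μM cAMP), 10 μM rolipram, 5′-nucleotidase; QAE-Sephadex-separated supernatant counted.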

T1 sequence (Q13946 whole entry): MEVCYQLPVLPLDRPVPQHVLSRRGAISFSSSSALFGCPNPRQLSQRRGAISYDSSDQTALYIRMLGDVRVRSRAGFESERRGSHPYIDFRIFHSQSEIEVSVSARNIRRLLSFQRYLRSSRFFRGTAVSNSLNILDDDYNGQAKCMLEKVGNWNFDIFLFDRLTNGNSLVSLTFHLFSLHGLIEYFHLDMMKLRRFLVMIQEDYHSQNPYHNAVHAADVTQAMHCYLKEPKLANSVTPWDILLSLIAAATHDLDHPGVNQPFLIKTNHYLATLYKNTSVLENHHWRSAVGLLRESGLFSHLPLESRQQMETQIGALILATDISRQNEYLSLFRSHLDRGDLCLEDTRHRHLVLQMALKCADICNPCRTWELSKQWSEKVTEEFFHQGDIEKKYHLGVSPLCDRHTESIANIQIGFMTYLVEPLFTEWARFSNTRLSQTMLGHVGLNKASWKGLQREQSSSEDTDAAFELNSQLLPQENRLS

As a reminder, the IC50 is the concentration at which inhibition is half-maximal. As to `COc1cc(CN2CCC(C(=O)O)CC2)ccc1-c1nc2c(C)nn(C3CCCCC3)c2c(=O)[nH]1` [Example 239, 1-[4-(1-Cyclohexyl-3-methyl-7-oxo-6,7-dihydro-1H-pyrazolo[4,3-d]pyrimidin-5-yl)-3-methoxybenzyl]-4-piperidinecarboxylic acid], the half-inhibitory concentration (IC50) was at most 1 µM.
Take `CNC1CCN(Cc2ccc(-c3nc4c(C)nn(C5CCCCC5)c4c(=O)[nH]3)c(OC)c2)CC1` [Example 241, 1-Cyclohexyl-5-(2-methoxy-4-{[4-(methylamino)-1-piperidinyl]methyl}phenyl)-3-methyl-1,6-dihydro-7H-pyrazolo[4,3-d]pyrimidin-7-one]: the 50% inhibitory concentration (IC50) is at most 1 µM.
For `COc1cc(NC2CCOCC2)ccc1-c1nc2c(C)nn(C3CCCCC3)c2c(=O)[nH]1` [Example 242, 1-Cyclohexyl-5-[2-methoxy-4-(tetrahydro-2H-pyran-4-ylamino)phenyl]-3-methyl-1,6-dihydro-7H-pyrazolo[4,3-d]pyrimidin-7-one] the value was at most 1 µM; for `COc1cc(N2CCC(N(C)C)CC2)ccc1-c1nc2c(C)nn(C3CCCCC3)c2c(=O)[nH]1` [Example 245, 1-Cyclohexyl-5-{4-[4-(dimethylamino)-1-piperidinyl]-2-methoxyphenyl}-3-methyl-1,6-dihydro-7H-pyrazolo[4,3-d]pyrimidin-7-one], at most 1 µM.
For `COc1cc(N2CCC(N)CC2)ccc1-c1nc2c(C)nn(C3CCCCC3)c2c(=O)[nH]1` [Example 247, 5-[4-(4-Amino-1-piperidinyl)-2-methoxyphenyl]-1-cyclohexyl-3-methyl-1,6-dihydro-7H-pyrazolo[4,3-d]pyrimidin-7-one] the value was at most 1 µM.
With `CCOc1cc(N2CCC(N(C)C)CC2)ccc1-c1nc2c(C)nn(C3CCCCC3)c2c(=O)[nH]1` [Example 250, 1-Cyclohexyl-5-{4-[4-(dimethylamino)-1-piperidinyl]-2-ethoxyphenyl}-3-methyl-1,6-dihydro-7H-pyrazolo[4,3-d]pyrimidin-7-one] the figure was at most 0.01 µM; with `CCNC1CCN(c2ccc(-c3nc4c(C)nn(C5CCCCC5)c4c(=O)[nH]3)c(OCC)c2)CC1` [Example 253, 1-Cyclohexyl-5-{2-ethoxy-4-[4-(ethylamino)-1-piperidinyl]phenyl}-3-methyl-1,6-dihydro-7H-pyrazolo[4,3-d]pyrimidin-7-one], at most 1 µM; with `CCOc1cc(S(=O)(=O)N2CCCN(C)CC2)ccc1-c1nc2c(C)nn(C3CCCCC3)c2c(=O)[nH]1` [Example 256, 1-Cyclohexyl-5-{2-ethoxy-4-[(4-methyl-1,4-diazepan-1-yl)sulfonyl]phenyl}-3-methyl-1,6-dihydro-7H-pyrazolo[4,3-d]pyrimidin-7-one], at most 1 µM.
Regarding `CCOc1cc(S(=O)(=O)N2CCC(O)CC2)ccc1-c1nc2c(C)nn(C3CCCCC3)c2c(=O)[nH]1` [Example 257, 1-Cyclohexyl-5-{2-ethoxy-4-[(4-hydroxy-1-piperidinyl)sulfonyl]phenyl}-3-methyl-1,6-dihydro-7H-pyrazolo[4,3-d]pyrimidin-7-one], the half-maximal inhibitory concentration (IC50) is at most 1 µM.
For `COc1cc(N2CCC(O)CC2)ccc1-c1nc2c(C)nn(C3CCCCC3)c2c(=O)[nH]1` [Example 258, 1-Cyclohexyl-5-[4-(4-hydroxy-1-piperidinyl)-2-methoxyphenyl]-3-methyl-1,6-dihydro-7H-pyrazolo[4,3-d]pyrimidin-7-one] the value was at most 1 µM; for `CCOc1cc(N2CCC(N)CC2)ccc1-c1nc2c(C)nn(C3CCCCC3)c2c(=O)[nH]1` [Example 260, 5-[4-(4-Amino-1-piperidinyl)-2-ethoxyphenyl]-1-cyclohexyl-3-methyl-1,6-dihydro-7H-pyrazolo[4,3-d]pyrimidin-7-one], at most 0.01 µM; for `CCOc1cc(N2CCC(O)CC2)ccc1-c1nc2c(C)nn(C3CCCCC3)c2c(=O)[nH]1` [Example 261, 1-Cyclohexyl-5-[2-ethoxy-4-(4-hydroxy-1-piperidinyl)phenyl]-3-methyl-1,6-dihydro-7H-pyrazolo[4,3-d]pyrimidin-7-one], at most 0.01 µM.
With `CCOc1cc(N2CCCNCC2)ccc1-c1nc2c(C)nn(C3CCCCC3)c2c(=O)[nH]1` [Example 262, 1-Cyclohexyl-5-[4-(1,4-diazepan-1-yl)-2-ethoxyphenyl]-3-methyl-1,6-dihydro-7H-pyrazolo[4,3-d]pyrimidin-7-one] the figure was at most 0.01 µM.
Turning to `CCOc1cc(NCCOC)ccc1-c1nc2c(C)nn(C3CCCCC3)c2c(=O)[nH]1` [Example 263, 1-Cyclohexyl-5-{2-ethoxy-4-[(2-methoxyethyl)amino]phenyl}-3-methyl-1,6-dihydro-7H-pyrazolo[4,3-d]pyrimidin-7-one], the IC50 is at most 0.01 µM.
For the compound `CCOc1cc(N2CCN(C)CC2)ccc1-c1nc2c(C)nn(C3CCCCC3)c2c(=O)[nH]1` [Example 264, 1-Cyclohexyl-5-[2-ethoxy-4-(4-methyl-1-piperazinyl)phenyl]-3-methyl-1,6-dihydro-7H-pyrazolo[4,3-d]pyrimidin-7-one], the half-inhibitory concentration (IC50) is at most 1 µM.
Turning to `COc1cc(N2CCCNCC2)c(F)cc1-c1nc2c(C)nn(C3CCCCC3)c2c(=O)[nH]1` [Example 266, 1-Cyclohexyl-5-[4-(1,4-diazepan-1-yl)-5-fluoro-2-methoxyphenyl]-3-methyl-1,6-dihydro-7H-pyrazolo[4,3-d]pyrimidin-7-one], the IC50 was at most 1 µM.
For `COc1cc(N(C)C2CCN(C)CC2)ccc1-c1nc2c(C)nn(C3CCCCC3)c2c(=O)[nH]1` [Example 267, 1-Cyclohexyl-5-{2-methoxy-4-[methyl(1-methyl-4-piperidinyl)amino]phenyl}-3-methyl-1,6-dihydro-7H-pyrazolo[4,3-d]pyrimidin-7-one] the value was at most 1 µM.
On to `CCOc1cc(N2CCNCC2)ccc1-c1nc2c(C)nn(C3CCCCC3)c2c(=O)[nH]1` [Example 268, 1-Cyclohexyl-5-[2-ethoxy-4-(1-piperazinyl)phenyl]-3-methyl-1,6-dihydro-7H-pyrazolo[4,3-d]pyrimidin-7-one], for which the 50% inhibitory concentration (IC50) is at most 1 µM.
With `COc1cc(N2CC[C@@H](O)C2)ccc1-c1nc2c(C)nn(C3CCCCC3)c2c(=O)[nH]1` [Example 270, 1-Cyclohexyl-5-{4-[(3R)-3-hydroxypyrrolidinyl]-2-methoxyphenyl}-3-methyl-1,6-dihydro-7H-pyrazolo[4,3-d]pyrimidin-7-one] the figure was at most 1 µM.
For `COc1cc(C2=CCN(Cc3ccccc3)CC2)ccc1-c1nc2c(C)nn(C3CCCCC3)c2c(=O)[nH]1` [Example 272, 5-[4-(1-Benzyl-1,2,3,6-tetrahydro-4-pyridinyl)-2-methoxyphenyl]-1-cyclohexyl-3-methyl-1,6-dihydro-7H-pyrazolo[4,3-d]pyrimidin-7-one] the value was at most 1 µM.
With `COc1cc(C2=CCNCC2)ccc1-c1nc2c(C)nn(C3CCCCC3)c2c(=O)[nH]1` [Example 273, 1-Cyclohexyl-5-[2-methoxy-4-(1,2,3,6-tetrahydro-4-pyridinyl)phenyl]-3-methyl-1,6-dihydro-7H-pyrazolo[4,3-d]pyrimidin-7-one monohydrochloride] the figure was at most 1 µM.
As for `CCNc1ccc(-c2nc3c(C)nn(C4CCCCC4)c3c(=O)[nH]2)c(OC)c1` [Example 275, 1-Cyclohexyl-5-[4-(ethylamino)-2-methoxyphenyl]-3-methyl-1,6-dihydro-7H-pyrazolo[4,3-d]pyrimidin-7-one], the IC50 was at most 1 µM.

The values above are taken from patent US7268128B2, “1,3,5-trisubstituted-5-phenyl and 5-pyridyl pyrazolopyrimidinone derivatives having PDE7 inhibiting action” (Ausbio Pharma Co., Ltd., priority 2001, dated 2007).
